Reference: patent US20250127754A1, “Pharmaceutical Application of Dimyricetin-yl-diselenide in Atherosclerosis” (Shanghai Spark Pharmaceutical Co., Ltd., priority 2023, published 2025)
“Also recorded” adds a separate entry of the source.

Tests used:
Type in all cases: in vivo
ApoE−/− mice [1] = experiment: Plasma SOD and MDA, high-fat diet atherosclerosis model; parameters: MDA: unit not given here; conditions: QD: Atorvastatin 20 mg/kg P.O., AQ-C-a 300 mg/kg P.O., DMS-ASD 300 mg/kg P.O., DMS 20 mg/kg SC
Description: (§1) Upon arrival, ApoE−/− mice were acclimatized to the experimental facility for 3 days. After an overnight fast (12 hours), blood samples were collected to measure baseline levels of serum lipids (TC, TG, HDL-C, LDL-C) and LDH. Control mice were fed a regular diet, while the remaining mice were fed a high-fat diet for 18 weeks. The regular diet contained 11% kcal fat and 0% cholesterol, while the high-fat diet contained 40% kcal fat and 0.21% cholesterol. At 8 weeks of high-fat feeding, the animals underwent echocardiography and blood biochemical tests. Based on their TC values, they were randomly assigned to the following groups: blank control, model control, positive control, AQ-C-a, DMS-ASD, and DMS (refer to Table 2 in Section 6.5). Drug administration continued for 10 weeks. During the experiment, the animals' appearance, behavior, and physical condition were observed, and their body weight, echocardiography, serum lipids (TC, TG, HDL-C, and LDL-C), and blood biochemistry (LDH, SOD, and MDA) were monitored. At the end of the experiment (Week 18), hearts and aortas were collected for Oil Red O staining and histopathological analysis.
(§2) Animals were fasted the night before blood collection. Blood samples were collected and anticoagulated with heparin to prepare plasma for the detection of TG, TC, HDL-C, LDL-c, and LDH. Blood was collected at six time points: Week 0, Week 8, Week 10, Week 12, Week 16, and Week 18. SOD and MDA levels were measured at Week 16 and Week 18.

ApoE−/− mice [2] = experiment: Aortic fat plaque examination (oil red O staining); conditions: for Effect on percentage of aortic plaque (in words): end of 18th week, compared with the model group; for % Patch area (aortic plaque): week 18, oil red staining of aorta, 10 weeks QD: Atorvastatin 20 mg/kg P.O., AQ-C-a 300 mg/kg P.O., DMS-ASD 300 mg/kg P.O., DMS 20 mg/kg SC
Description: as §1
Aortic oil red O staining was performed. The experimental endpoint was set at Week 10 post-treatment. After euthanasia, the aorta was collected from the aortic arch to the iliac artery and subjected to oil red O staining to analyze the accumulation of fat plaques in the aorta.

ApoE−/− mice [3] = experiment: Blood lipids (TG, TC, HDL-C, LDL-C) in plasma, high-fat diet atherosclerosis model; parameters: TG / TC / HDL-C / LDL-C: unit not given here; conditions: for Effect on LDL-c (in words) / Effect on TC (in words): compared to the model group
Description: as §1, §2

ApoE−/− mice [4] = experiment: Plasma LDH content, high-fat diet atherosclerosis model; parameters: LDH: unit not given here
Description: Upon arrival, ApoE−/− mice were acclimatized to the experimental facility for 3 days. […] Control mice were fed a regular diet, while the remaining mice were fed a high-fat diet for 18 weeks. […] At 8 weeks of high-fat feeding, the animals underwent echocardiography and blood biochemical tests. […] Drug administration continued for 10 weeks. During the experiment, the animals' appearance, behavior, and physical condition were observed, and their body weight, echocardiography, serum lipids (TC, TG, HDL-C, and LDL-C), and blood biochemistry (LDH, SOD, and MDA) were monitored. At the end of the experiment (Week 18), hearts and aortas were collected for Oil Red O staining and histopathological analysis. Animals were fasted the night before blood collection. Blood samples were collected and anticoagulated with heparin to prepare plasma for the detection of TG, TC, HDL-C, LDL-c, and LDH.

ApoE−/− mice [5] = experiment: Body weight, high-fat diet atherosclerosis model; conditions: HFD-fed ApoE−/− mice, compared with control group; FIG. 1
Description: as §1
All animals were given medicine […] once a day during the medication period;

ApoE−/− mice [6] = experiment: Heart weight and heart weight index (tibial length corrected); conditions: 10 weeks QD: Atorvastatin 20 mg/kg P.O., AQ-C-a 300 mg/kg P.O., DMS-ASD 300 mg/kg P.O., DMS 20 mg/kg SC; for Heart: heart weight at end of experiment (week 18)
Description: At the experimental endpoint, hearts and tibias were collected. The heart was weighed and its weight index was calculated using tibial length for correction, with the formula: Heart Index=Heart Weight (g)/Tibial Length (cm)×100%. The heart was fixed in 4% PFA and subjected to HE staining to evaluate fat plaques in the outflow tract.

[7] = week 0, baseline before HFD and dosing, fasted plasma, mean±standard error
[8] = week 8 of HFD, before start of dosing, fasted plasma
[9] = week 10 of HFD (2 weeks dosing), QD: Atorvastatin 20 mg/kg P.O., AQ-C-a 300 mg/kg P.O., DMS-ASD 300 mg/kg P.O., DMS 20 mg/kg SC
[10] = week 12 of HFD (4 weeks dosing), QD: Atorvastatin 20 mg/kg P.O., AQ-C-a 300 mg/kg P.O., DMS-ASD 300 mg/kg P.O., DMS 20 mg/kg SC
[11] = week 16 of HFD (8 weeks dosing), QD: Atorvastatin 20 mg/kg P.O., AQ-C-a 300 mg/kg P.O., DMS-ASD 300 mg/kg P.O., DMS 20 mg/kg SC
[12] = week 18 of HFD (10 weeks dosing), QD: Atorvastatin 20 mg/kg P.O., AQ-C-a 300 mg/kg P.O., DMS-ASD 300 mg/kg P.O., DMS 20 mg/kg SC

Q: For Dimyricetin-yl-diselenide [DMS], which MDA (ApoE−/− mice [1]; week 16 (8 weeks dosing)) is on record?
A: 7.19 ± 1.15

Q: What about the SOD (ApoE−/− mice [1]; week 16 (8 weeks dosing)) of the same compound?
A: 1.06 ± 0.14 U/mL

Q: And the MDA (ApoE−/− mice [1]; week 18 (10 weeks dosing))?
A: 6.08 ± 0.50

Q: And the SOD (ApoE−/− mice [1]; week 18 (10 weeks dosing))?
A: 0.87 ± 0.03 U/mL

Q: What about the “Effect on percentage of aortic plaque (in words)” value (ApoE−/− mice [2]) of the same compound?
A: statistically significant compared with the model group; also recorded: reducing the area

Q: And the “% Patch area (aortic plaque)” value (ApoE−/− mice [2])?
A: 8.43 ± 0.95 %

Q: What about the “Effect on LDL-c (in words)” value (ApoE−/− mice [3]) of the same compound?
A: trend of reducing; also recorded: inhibiting the increase

Q: And the “Effect on TC (in words)” value (ApoE−/− mice [3])?
A: trend of reducing; also recorded: inhibiting the increase

Q: And the HDL-C (ApoE−/− mice [3]; [7])?
A: 1.63 ± 0.12

Q: And the LDL-C (ApoE−/− mice [3]; [7])?
A: 6.07 ± 0.19

Q: And the TC (ApoE−/− mice [3]; [7])?
A: 11.84 ± 0.85

Q: And the TG (ApoE−/− mice [3]; [7])?
A: 1.99 ± 0.14

Q: What about the HDL-C (ApoE−/− mice [3]; [8]) of the same compound?
A: 1.38 ± 0.15

Q: What about the LDL-C (ApoE−/− mice [3]; [8]) of the same compound?
A: 22.09 ± 1.86

Q: And the TC (ApoE−/− mice [3]; [8])?
A: 28.69 ± 2.34

Q: And the TG (ApoE−/− mice [3]; [8])?
A: 1.26 ± 0.07

Q: And the HDL-C (ApoE−/− mice [3]; [9])?
A: 1.44 ± 0.07

Q: What about the LDL-C (ApoE−/− mice [3]; [9]) of the same compound?
A: 23.38 ± 1.46

Q: What about the TC (ApoE−/− mice [3]; [9]) of the same compound?
A: 30.95 ± 1.95

Q: And the TG (ApoE−/− mice [3]; [9])?
A: 2.14 ± 0.1

Q: And the HDL-C (ApoE−/− mice [3]; [10])?
A: 1.44 ± 0.07

Q: What about the LDL-C (ApoE−/− mice [3]; [10]) of the same compound?
A: 23.38 ± 1.46

Q: What about the TC (ApoE−/− mice [3]; [10]) of the same compound?
A: 32.35 ± 1.96

Q: What about the TG (ApoE−/− mice [3]; [10]) of the same compound?
A: 2.29 ± 0.2

Q: What about the HDL-C (ApoE−/− mice [3]; [11]) of the same compound?
A: 2.27 ± 0.15

Q: What about the LDL-C (ApoE−/− mice [3]; [11]) of the same compound?
A: 21.1 ± 1.23

Q: And the TC (ApoE−/− mice [3]; [11])?
A: 27.78 ± 1.36

Q: And the TG (ApoE−/− mice [3]; [11])?
A: 2.71 ± 0.35

Q: And the HDL-C (ApoE−/− mice [3]; [12])?
A: 2.1 ± 0.19

Q: And the LDL-C (ApoE−/− mice [3]; [12])?
A: 15.94 ± 1.32

Q: And the TC (ApoE−/− mice [3]; [12])?
A: 20.92 ± 1.78

Q: What about the TG (ApoE−/− mice [3]; [12]) of the same compound?
A: 1.27 ± 0.06

Q: And the “Effect on plasma LDH (in words)” value (ApoE−/− mice [4]; 18th week, compared to the model group, P<0.05)?
A: significant reductions; also recorded: inhibiting the increase

Q: What about the LDH (ApoE−/− mice [4]; [7]) of the same compound?
A: 1083.25 ± 375.4

Q: And the LDH (ApoE−/− mice [4]; [8])?
A: 1022.5 ± 112.95

Q: What about the LDH (ApoE−/− mice [4]; [9]) of the same compound?
A: 401.5 ± 22.95

Q: What about the LDH (ApoE−/− mice [4]; [10]) of the same compound?
A: 368.5 ± 26.82

Q: And the LDH (ApoE−/− mice [4]; [11])?
A: 361.88 ± 20.78

Q: What about the LDH (ApoE−/− mice [4]; [12]) of the same compound?
A: 719 ± 81.08

Q: And the “Effect on body weight (in words)” value (ApoE−/− mice [5])?
A: stabilized from the 10th to 11th week and overlapped with the control group's weight curve by the 14th week; also recorded: inhibiting the increase

Q: What about the Heart (ApoE−/− mice [6]) of the same compound?
A: 0.169 ± 0.010 g

Q: What about the Cardiac weight index (ApoE−/− mice [6]; heart weight/tibial length, week 18) of the same compound?
A: 0.095 ± 0.006 g/cm

Q: How did the SOD (ApoE−/− mice [1]; week 16 (8 weeks dosing)) turn out when `CC(C)c1c(C(=O)Nc2ccccc2)c(-c2ccccc2)c(-c2ccc(F)cc2)n1CC[C@@H](O)C[C@@H](O)CC(=O)O` [Atorvastatin, reference compound] was run?
A: 0.87 ± 0.09 U/mL

Q: What about the SOD (ApoE−/− mice [1]; week 18 (10 weeks dosing)) of the same compound?
A: 0.99 ± 0.09 U/mL

Q: And the “Effect on percentage of aortic plaque (in words)” value (ApoE−/− mice [2])?
A: significantly reduced

Q: And the “% Patch area (aortic plaque)” value (ApoE−/− mice [2])?
A: 6.86 ± 1.21 %

Q: What about the “Effect on LDL-c (in words)” value (ApoE−/− mice [3]) of the same compound?
A: significantly reduced

Q: And the “Effect on TC (in words)” value (ApoE−/− mice [3])?
A: significantly reduced

Q: What about the HDL-C (ApoE−/− mice [3]; [7]) of the same compound?
A: 1.53 ± 0.15

Q: And the LDL-C (ApoE−/− mice [3]; [7])?
A: 5.63 ± 0.34

Q: What about the TC (ApoE−/− mice [3]; [7]) of the same compound?
A: 10.12 ± 0.84

Q: And the TG (ApoE−/− mice [3]; [7])?
A: 1.79 ± 0.14

Q: What about the HDL-C (ApoE−/− mice [3]; [8]) of the same compound?
A: 1.36 ± 0.13

Q: What about the LDL-C (ApoE−/− mice [3]; [8]) of the same compound?
A: 22.23 ± 1.6

Q: And the TC (ApoE−/− mice [3]; [8])?
A: 28.87 ± 2.19

Q: And the TG (ApoE−/− mice [3]; [8])?
A: 1.35 ± 0.17

Q: What about the HDL-C (ApoE−/− mice [3]; [9]) of the same compound?
A: 1.51 ± 0.06

Q: What about the LDL-C (ApoE−/− mice [3]; [9]) of the same compound?
A: 16.31 ± 0.92

Q: What about the TC (ApoE−/− mice [3]; [9]) of the same compound?
A: 22.38 ± 1.25

Q: What about the TG (ApoE−/− mice [3]; [9]) of the same compound?
A: 2.31 ± 0.18

Q: And the HDL-C (ApoE−/− mice [3]; [10])?
A: 1.59 ± 0.09

Q: What about the LDL-C (ApoE−/− mice [3]; [10]) of the same compound?
A: 20.24 ± 2

Q: And the TC (ApoE−/− mice [3]; [10])?
A: 27.29 ± 2.61

Q: And the TG (ApoE−/− mice [3]; [10])?
A: 2.2 ± 0.13

Q: What about the HDL-C (ApoE−/− mice [3]; [11]) of the same compound?
A: 2.53 ± 0.12

Q: What about the LDL-C (ApoE−/− mice [3]; [11]) of the same compound?
A: 14.32 ± 1.08

Q: And the TC (ApoE−/− mice [3]; [11])?
A: 19.14 ± 1.34

Q: And the TG (ApoE−/− mice [3]; [11])?
A: 1.99 ± 0.2

Q: And the HDL-C (ApoE−/− mice [3]; [12])?
A: 2.5 ± 0.18

Q: What about the LDL-C (ApoE−/− mice [3]; [12]) of the same compound?
A: 13.87 ± 1.51

Q: What about the TC (ApoE−/− mice [3]; [12]) of the same compound?
A: 18.89 ± 2.11

Q: What about the TG (ApoE−/− mice [3]; [12]) of the same compound?
A: 1.51 ± 0.09

Q: And the LDH (ApoE−/− mice [4]; [7])?
A: 948.67 ± 117.19

Q: What about the LDH (ApoE−/− mice [4]; [8]) of the same compound?
A: 1176.67 ± 142.27

Q: And the LDH (ApoE−/− mice [4]; [9])?
A: 620 ± 62.03

Q: And the LDH (ApoE−/− mice [4]; [10])?
A: 422.67 ± 50.59

Q: And the LDH (ApoE−/− mice [4]; [11])?
A: 384 ± 25.93

Q: What about the LDH (ApoE−/− mice [4]; [12]) of the same compound?
A: 1384.67 ± 191.24

Q: What about the “Effect on body weight (in words)” value (ApoE−/− mice [5]) of the same compound?
A: significantly greater than those in the control group

Q: What about the Heart (ApoE−/− mice [6]) of the same compound?
A: 0.192 ± 0.009 g
